According to patent US20220323406A1, “METHODS AND COMPOSITIONS FOR DIFFERENTIATING STEM CELLS” (Massachusetts Institute of Technology, priority 2019, published 2022):

Experiments:
[1] = tested on: ENR+CD organoids (ISC to Paneth cell differentiation); assay: Primary screen: basal (non-stimulated) lysozyme secretion LYZ.NS, 2.5-D 384-well ENR+CD organoid differentiation; format: cell-based, mouse
Text: (§1) High-throughput screening.

[2] = tested on: ENR+CD organoids (ISC to Paneth cell differentiation); assay: Primary screen: CCh-stimulated lysozyme secretion LYZ.S, 2.5-D 384-well ENR+CD organoid differentiation; format: cell-based, mouse; details: primary screen
Text: as §1

ENR+CD organoids = assay: Primary screen: ATP (CellTiter-Glo 3D, CTG) cell number/viability, 2.5-D 384-well ENR+CD organoids; details: primary screen; for Z.CTG: standard z score;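 on all read-outs here: compounds given at plating and again on day 3 over a 6-day differentiation from ENR+CV stem-cell-enriched precursors, ATP measured on day 6, plate median as control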
[3] = dose 0.08 uM, FC vs plate median
[4] = dose 0.40 uM, FC vs plate median
[5] = dose 2.00 uM, FC vs plate median
[6] = dose 10.00 uM, FC vs plate median

SMILES: COCC[n+]1c2c(n(Cc3cnccn3)c1C)C(=O)c1ccccc1C2=O.[Br-] [YM155 (Sepantronium Bromide)]
- Dose.FC.LYZ.NS ([1]; primary screen, dose 0.08 uM): 0.114 log2 fold change
- Z.LYZ.NS (standard z score) ([1]; primary screen, dose 0.08 uM): 0.995
- Dose.FC.LYZ.NS ([1]; primary screen, dose 0.40 uM): −0.031 log2 fold change
- Z.LYZ.NS (standard z score) ([1]; primary screen, dose 0.40 uM): −0.266
- Dose.FC.LYZ.NS ([1]; primary screen, dose 2.00 uM): −0.082 log2 fold change
- Z.LYZ.NS (standard z score) ([1]; primary screen, dose 2.00 uM): −0.714
- Dose.FC.LYZ.NS ([1]; primary screen, dose 10.00 uM): −0.096 log2 fold change
- Z.LYZ.NS (standard z score) ([1]; primary screen, dose 10.00 uM): −0.839
- Dose.FC.LYZ.S ([2]; dose 0.08 uM): 0.172 log2 fold change
- Dose.FC.LYZ.S ([2]; dose 0.40 uM): −0.039 log2 fold change
- Dose.FC.LYZ.S ([2]; dose 2.00 uM): −0.137 log2 fold change
- Dose.FC.LYZ.S ([2]; dose 10.00 uM): −0.210 log2 fold change
- Dose.FC.CTG (ENR+CD organoids; dose 0.08 uM): 0.222 log2 fold change
- Z.CTG (standard z score) (ENR+CD organoids; dose 0.08 uM): 0.531
- Dose.FC.CTG (ENR+CD organoids; dose 0.40 uM): −0.083 log2 fold change
- Z.CTG (standard z score) (ENR+CD organoids; dose 0.40 uM): −0.198
- Dose.FC.CTG (ENR+CD organoids; dose 2.00 uM): −0.460 log2 fold change
- Z.CTG (standard z score) (ENR+CD organoids; dose 2.00 uM): −1.100
- Dose.FC.CTG (ENR+CD organoids; dose 10.00 uM): −0.970 log2 fold change
- Z.CTG (standard z score) (ENR+CD organoids; dose 10.00 uM): −2.316

SMILES: Nc1ncnc2n[nH]c(Nc3ccc(F)cc3)c12 [CGP57380]
- Dose.FC.LYZ.NS ([1]; primary screen, dose 0.08 uM): 0.218 log2 fold change
- Dose.FC.LYZ.NS ([1]; primary screen, dose 0.40 uM): −0.041 log2 fold change
- Dose.FC.LYZ.NS ([1]; primary screen, dose 2.00 uM): −0.055 log2 fold change
- Dose.FC.LYZ.NS ([1]; primary screen, dose 10.00 uM): −0.037 log2 fold change
- Z.LYZ.NS ([1]; primary screen, standard z score, dose 0.08 uM): 1.900
- Z.LYZ.NS ([1]; primary screen, standard z score, dose 0.40 uM): −0.354
- Z.LYZ.NS ([1]; primary screen, standard z score, dose 2.00 uM): −0.477
- Z.LYZ.NS ([1]; primary screen, standard z score, dose 10.00 uM): −0.321
- Dose.FC.LYZ.S ([2]; dose 0.08 uM): 0.096 log2 fold change
- Dose.FC.LYZ.S ([2]; dose 0.40 uM): 0.054 log2 fold change
- Dose.FC.LYZ.S ([2]; dose 2.00 uM): −0.095 log2 fold change
- Dose.FC.LYZ.S ([2]; dose 10.00 uM): −0.088 log2 fold change
- Dose.FC.CTG (ENR+CD organoids; dose 0.08 uM): 0.108 log2 fold change
- Dose.FC.CTG (ENR+CD organoids; dose 0.40 uM): −0.293 log2 fold change
- Dose.FC.CTG (ENR+CD organoids; dose 2.00 uM): −0.460 log2 fold change
- Dose.FC.CTG (ENR+CD organoids; dose 10.00 uM): 0.055 log2 fold change
- Z.CTG (ENR+CD organoids; dose 0.08 uM): 0.258
- Z.CTG (ENR+CD organoids; dose 0.40 uM): −0.700
- Z.CTG (ENR+CD organoids; dose 2.00 uM): −1.098
- Z.CTG (ENR+CD organoids; dose 10.00 uM): 0.132

SMILES: CCN(CC)CC(=O)Nc1c(C)cccc1C [Lidocaine]
- Dose.FC.LYZ.NS (log2 fold change) ([1]; primary screen, dose 0.08 uM): 0.106
- Z.LYZ.NS (standard z score) ([1]; primary screen, dose 0.08 uM): 0.927
- Dose.FC.LYZ.NS (log2 fold change) ([1]; primary screen, dose 0.40 uM): 0.017
- Z.LYZ.NS (standard z score) ([1]; primary screen, dose 0.40 uM): 0.144
- Dose.FC.LYZ.NS (log2 fold change) ([1]; primary screen, dose 2.00 uM): 0.001
- Z.LYZ.NS (standard z score) ([1]; primary screen, dose 2.00 uM): 0.008
- Dose.FC.LYZ.NS (log2 fold change) ([1]; primary screen, dose 10.00 uM): 0.019
- Z.LYZ.NS (standard z score) ([1]; primary screen, dose 10.00 uM): 0.167
- Dose.FC.LYZ.S (log2 fold change) ([2]; dose 0.08 uM): 0.083
- Dose.FC.LYZ.S (log2 fold change) ([2]; dose 0.40 uM): 0.026
- Dose.FC.LYZ.S (log2 fold change) ([2]; dose 2.00 uM): −0.038
- Dose.FC.LYZ.S (log2 fold change) ([2]; dose 10.00 uM): −0.009
- Dose.FC.CTG (log2 fold change) (ENR+CD organoids; dose 0.08 uM): −0.079
- Dose.FC.CTG (log2 fold change) (ENR+CD organoids; dose 0.40 uM): −0.153
- Dose.FC.CTG (log2 fold change) (ENR+CD organoids; dose 2.00 uM): 0.034
- Dose.FC.CTG (log2 fold change) (ENR+CD organoids; dose 10.00 uM): −0.256

SMILES: COC(=O)C1=C(C#N)NC(C)=C(C(=O)OC(C)C)C1c1cccc([N+](=O)[O-])c1 (centres unmarked) [Nilvadipine]
- Z.LYZ.NS ([1]; primary screen, dose 0.08 uM, standard z score): 0.857
- Z.LYZ.NS ([1]; primary screen, dose 0.40 uM, standard z score): 0.034
- Z.LYZ.NS ([1]; primary screen, dose 2.00 uM, standard z score): 0.500
- Z.LYZ.NS ([1]; primary screen, dose 10.00 uM, standard z score): 0.082
- Dose.FC.LYZ.NS ([1]; primary screen; dose 0.08 uM; FC vs plate median): 0.098 log2 fold change
- Dose.FC.LYZ.NS ([1]; primary screen; dose 0.40 uM; FC vs plate median): 0.004 log2 fold change
- Dose.FC.LYZ.NS ([1]; primary screen; dose 2.00 uM; FC vs plate median): 0.057 log2 fold change
- Dose.FC.LYZ.NS ([1]; primary screen; dose 10.00 uM; FC vs plate median): 0.009 log2 fold change
- Dose.FC.LYZ.S [2, 3]: 0.088 log2 fold change
- Dose.FC.LYZ.S [2, 4]: 0.013 log2 fold change
- Dose.FC.LYZ.S [2, 5]: 0.071 log2 fold change
- Dose.FC.LYZ.S [2, 6]: −0.008 log2 fold change
- Dose.FC.CTG (ENR+CD organoids; [3]): 0.206 log2 fold change
- Dose.FC.CTG (ENR+CD organoids; [4]): 0.135 log2 fold change
- Dose.FC.CTG (ENR+CD organoids; [5]): 0.212 log2 fold change
- Dose.FC.CTG (ENR+CD organoids; [6]): 0.192 log2 fold change

SMILES: O=C(O)CCc1ccc(NCc2cccc(Oc3ccccc3)c2)cc1 [GW9508]
- Dose.FC.LYZ.NS (log2 fold change) ([1]; primary screen, dose 0.08 uM): 0.075
- Z.LYZ.NS (standard z score) ([1]; primary screen, dose 0.08 uM): 0.650
- Dose.FC.LYZ.NS (log2 fold change) ([1]; primary screen, dose 0.40 uM): 0.019
- Z.LYZ.NS (standard z score) ([1]; primary screen, dose 0.40 uM): 0.169
- Dose.FC.LYZ.NS (log2 fold change) ([1]; primary screen, dose 2.00 uM): −0.011
- Z.LYZ.NS (standard z score) ([1]; primary screen, dose 2.00 uM): −0.092
- Dose.FC.LYZ.NS (log2 fold change) ([1]; primary screen, dose 10.00 uM): −0.040
- Z.LYZ.NS (standard z score) ([1]; primary screen, dose 10.00 uM): −0.350
- Dose.FC.LYZ.S (log2 fold change) ([2]; dose 0.08 uM): 0.067
- Dose.FC.LYZ.S (log2 fold change) ([2]; dose 0.40 uM): 0.049
- Dose.FC.LYZ.S (log2 fold change) ([2]; dose 2.00 uM): 0.000
- Dose.FC.LYZ.S (log2 fold change) ([2]; dose 10.00 uM): −0.045
- Dose.FC.CTG (log2 fold change) (ENR+CD organoids; dose 0.08 uM): 0.063
- Z.CTG (standard z score) (ENR+CD organoids; dose 0.08 uM): 0.151
- Dose.FC.CTG (log2 fold change) (ENR+CD organoids; dose 0.40 uM): 0.174
- Z.CTG (standard z score) (ENR+CD organoids; dose 0.40 uM): 0.417
- Dose.FC.CTG (log2 fold change) (ENR+CD organoids; dose 2.00 uM): −0.001
- Z.CTG (standard z score) (ENR+CD organoids; dose 2.00 uM): −0.003
- Dose.FC.CTG (log2 fold change) (ENR+CD organoids; dose 10.00 uM): −0.059
- Z.CTG (standard z score) (ENR+CD organoids; dose 10.00 uM): −0.140
